Measurements from patent US20130150330A1, “DECOQUINATE PRODRUGS” (UNIVERSITY OF KANSAS, priority 2011, published 2013).

Assay: Solubility in water, increasing amounts added to 1 mL deionized water
Format: physicochemical
Conditions: decoquinate without the prodrug moiety, comparison
Method: Comparatively, decoquinate without the prodrug moiety is practically insoluble in water (<0.05 mg/ml). Improved solubility in water allows administration of the decoquinate prodrug by the intravenous and intramuscular routes. Additionally, water solubility also makes oral administration feasible by improving absorption from the GI tract.

CCCCCCCCCCOc1cc2c(O)c(C(=O)OCC)cnc2cc1OCC [decoquinate, ethyl 6-(decyloxy)-7-ethoxy-4-oxo-1,4-dihydroquinoline-3-carboxylate]
solubility: < 50 µg/mL
